Measured values taken from patent US20240116946A1 (Gilead Sciences, Inc., priority 2022, published 2024).
pEC50, pIC50: −log10 of the molar value. Where two headings read alike, the source gives them in different places.

Key:
SARS-CoV-2-NLuc = experiment: microbe, parasite or virus in culture; assay type: cell-based, SARS Coronavirus 2
[1] = biological target: recombinant SARS-CoV-2 Main protease (Mpro) (Severe acute respiratory syndrome coronavirus 2 (2019-nCoV) (SARS-CoV-2), UniProt P0DTD1); experiment: Cov Mpro Biochemical IC50 Assay; conditions: fluorogenic peptide substrate 40 μM
SARS-CoV-2 main protease = SARS-CoV-2 main protease (Severe acute respiratory syndrome coronavirus 2 (2019-nCoV) (SARS-CoV-2), UniProt P0DTD1); experiment: activity comparison of separated atropisomers (assay not given); conditions: Isomer 1 versus Isomer 2 after chiral SFC separation; used to assign stereochemistry by analogy to Example 438
[2] = recombinant SARS-CoV-2 Mpro 7.5 nM, read-out: MPro IC50
[3] = Severe acute respiratory syndrome coronavirus, 48 h, read-out: MPro EC50
[4] = Severe acute respiratory syndrome coronavirus, 48 h; read-out: MPro EC50

| SMILES | pIC50 [1, 2] | pEC50 (SARS-CoV-2-NLuc; [3]) | pEC50 (SARS-CoV-2-NLuc; [4]) | other results |
| --- | --- | --- | --- | --- |
| COc1ccc2cncc(-n3c(=O)[nH]c4cc(-c5ccccc5Cl)sc4c3=O)c2c1 (single isomer, unassigned) [Example 440, 6-(2-chlorophenyl)-3-(6-methoxyisoquinolin-4-yl)thieno[3,2-d]pyrimidine-2,4(1H,3H)-dione] | > 8.40 | – | – | pEC50 (SARS-CoV-2-NLuc; read-out: MPro EC50): 7.87; relative activity of the two separated isomers (SARS-CoV-2 main protease): more active isomer |
| O=c1[nH]c2cc(-c3ccccc3Cl)sc2c(=O)n1-c1cncc2ccc(N3CCOCC3)cc12 (single isomer, unassigned) [Example 442, 6-(2-chlorophenyl)-3-(6-morpholinoisoquinolin-4-yl)thieno[3,2-d]pyrimidine-2,4(1H,3H)-dione] | > 8.46 | – | – | pEC50 (SARS-CoV-2-NLuc; read-out: MPro EC50): 7.91; relative activity of the two separated isomers (SARS-CoV-2 main protease): more active isomer |
| COc1cc(-c2cc3[nH]c(=O)n(-c4cncc5[nH]nc(C(F)(F)F)c45)c(=O)c3s2)c(Cl)cc1F [Example 1045, 6-(2-chloro-4-fluoro-5-methoxyphenyl)-3-(3-(trifluoromethyl)-1H-pyrazolo[3,4-c]pyridin-4-yl)thieno[3,2-d]pyrimidine-2,4(1H,3H)-dione] | 6.85 | < 6.00 | – | – |
| COc1cc(-c2cc3c(s2)c(=O)n(-c2cncc4c2c(C(F)(F)F)nn4COCC[Si](C)(C)C)c(=O)n3CCC#N)c(Cl)cc1F [Example 1046, 3-(6-(2-chloro-4-fluoro-5-methoxyphenyl)-2,4-dioxo-3-(3-(trifluoromethyl)-1-((2-(trimethylsilyl)ethoxy)methyl)-1H-pyrazolo[3,4-c]pyridin-4-yl)-3,4-dihydrothieno[3,2-d]pyrimidin-1(2H)-yl)propanenitrile] | – | – | 6.89 | pIC50 ([1]; MPro IC50, recombinant SARS-CoV-2 Mpro 7.5 nM): 7.45 |
| COc1cc(-c2cc3c(s2)c(=O)n(-c2cncc4cn[nH]c24)c(=O)n3CCC#N)c(Cl)cc1F [Example 1047] | 8.26 | 7.91 | – | – |
| COc1ccc(Cl)c(-c2cc3[nH]c(=O)n(-c4cncc5sc(C(N)=O)c(C)c45)c(=O)c3s2)c1 [Example 1048, 4-(6-(2-chloro-5-methoxyphenyl)-2,4-dioxo-1,4-dihydrothieno[3,2-d]pyrimidin-3(2H)-yl)-3-methylthieno[2,3-c]pyridine-2-carboxamide] | 8.28 | – | 8.01 | – |
| COc1cc(-c2cc3[nH]c(=O)n(-c4cncc5sc(C(N)=O)c(C)c45)c(=O)c3s2)c(Cl)cc1F [Example 1049] | 8.50 | 7.39 | – | – |
| COc1ccc(Cl)c(-c2cc3[nH]c(=O)n(-c4cncc5sc(C#N)c(C)c45)c(=O)c3s2)c1 [Example 1050, 4-(6-(2-chloro-5-methoxyphenyl)-2,4-dioxo-1,4-dihydrothieno[3,2-d]pyrimidin-3(2H)-yl)-3-methylthieno[2,3-c]pyridine-2-carbonitrile] | 8.05 | – | 7.59 | – |
| COc1cc(-c2cc3[nH]c(=O)n(-c4cncc5sc(C#N)c(C)c45)c(=O)c3s2)c(Cl)cc1F [Example 1051] | 8.17 | 8.29 | – | – |
| COc1cc(-c2cc3[nH]c(=O)n(-c4cncc5sc(C(F)F)c(C)c45)c(=O)c3s2)c(Cl)cc1F [Example 1060, 6-(2-chloro-4-fluoro-5-methoxyphenyl)-3-(2-(difluoromethyl)-3-methylthieno[2,3-c]pyridin-4-yl)thieno[3,2-d]pyrimidine-2,4(1H,3H)-dione] | 7.70 | 7.54 | – | – |
| N#CCCn1c(=O)n(-c2cncc(C#N)c2)c(=O)c2sc(-c3ccccc3Cl)cc21 [Example 1061, 5-(6-(2-chlorophenyl)-1-(2-cyanoethyl)-2,4-dioxo-1,4-dihydrothieno[3,2-d]pyrimidin-3(2H)-yl)nicotinonitrile] | 8.29 | – | 7.84 | – |
| COc1cc(-c2cc3c(s2)c(=O)n(-c2cncc4ccc(C#N)cc24)c(=O)n3CCC#N)c(Cl)cc1F [Example 1062] | 8.31 | 8.27 | – | – |
| N#CCCn1c(=O)n(-c2cncc3ccc(C#N)cc23)c(=O)c2sc(-c3ccc(F)cc3Cl)cc21 [Example 1063] | 7.75 | 7.40 | – | – |
| N#CCCn1c(=O)n(-c2cncc(C3CC4(COC4)C3)c2)c(=O)c2sc(-c3ccccc3Cl)cc21 [Example 1064, 3-(3-(5-(2-oxaspiro[3.3]heptan-6-yl)pyridin-3-yl)-6-(2-chlorophenyl)-2,4-dioxo-3,4-dihydrothieno[3,2-d]pyrimidin-1(2H)-yl)propanenitrile] | 7.62 | – | 6.15 | – |
| COc1cc(-c2cc3c(s2)c(=O)n(-c2cncc4cnn(C)c24)c(=O)n3CC(F)F)c(Cl)cc1F [Example 1065, 6-(2-chloro-4-fluoro-5-methoxy-phenyl)-1-(2,2-difluoroethyl)-3-(1-methylpyrazolo[4,3-c]pyridin-7-yl)thieno[3,2-d]pyrimidine-2,4-dione] | 8.15 | – | 7.87 | – |
| COc1cc(-c2cc3c(s2)c(=O)n(-c2cncc4cnn(C)c24)c(=O)n3CC(F)(F)F)c(Cl)cc1F [Example 1066] | 7.82 | 7.70 | – | – |
| COc1cc(-c2cc3c(s2)c(=O)n(-c2cncc4cnn(C)c24)c(=O)n3CCS(C)(=O)=O)c(Cl)cc1F [Example 1067, 6-(2-chloro-4-fluoro-5-methoxy-phenyl)-3-(1-methylpyrazolo[4,3-c]pyridin-7-yl)-1-(2-methylsulfonylethyl)thieno[3,2-d]pyrimidine-2,4-dione] | 7.56 | – | 7.24 | – |
| COc1cc(-c2cc3c(s2)c(=O)n(-c2cncc4cnn(C)c24)c(=O)n3CCN(C)C)c(Cl)cc1F [Example 1068] | 7.13 | 6.66 | – | – |
| COCCn1c(=O)n(-c2cncc3cnn(C)c23)c(=O)c2sc(-c3cc(OC)c(F)cc3Cl)cc21 [Example 1069] | 7.41 | 6.88 | – | – |

| SMILES | pIC50 [1, 2] | pEC50 (SARS-CoV-2-NLuc; [3]) | pEC50 (SARS-CoV-2-NLuc; [4]) | other results |
| --- | --- | --- | --- | --- |
| COc1cc(-c2cc3c(s2)c(=O)n(-c2cncc4cnn(C)c24)c(=O)n3CCO)c(Cl)cc1F [Example 1070] | 7.70 | 7.51 | – | – |
| COc1cc(-c2cc3c(s2)c(=O)n(-c2cncc4cnn(C)c24)c(=O)n3CC2CCCN2C)c(Cl)cc1F (stereo not drawn) [Example 1071] | 6.99 | 6.51 | – | – |
| COc1cc(-c2cc3[nH]c(=O)n(-c4cncc5cccc(Cl)c45)c(=O)c3s2)c(Cl)cc1F [Example 1074] | 8.36 | – | – | pEC50 (SARS-CoV-2-NLuc; read-out: MPro EC50): 8.23 |
| COc1cc(-c2cc3[nH]c(=O)n(-c4cncc5cccc(Cl)c45)c(=O)c3s2)c(Cl)cc1F [Example 1075] | 7.83 | – | – | pEC50 (SARS-CoV-2-NLuc; read-out: MPro EC50): 7.93 |
| COc1cc(-c2cc3[nH]c(=O)n(-c4cncc5cccc(Cl)c45)c(=O)c3s2)c(Cl)cc1F [Example 1078] | 8.05 | – | 8.02 | – |
| COc1cc(-c2cc3[nH]c(=O)n(-c4cncc5c4OCCC5)c(=O)c3s2)c(Cl)cc1F [Example 1079] | 7.99 | 8.02 | – | – |
| COc1cc(-c2cc3[nH]c(=O)n(-c4cncc(C)c4Cl)c(=O)c3s2)c(Cl)cc1F [Example 1080] | 7.69 | 7.44 | – | – |
| COc1cc(-c2cc3[nH]c(=O)n(-c4cncc5c(F)cccc45)c(=O)c3s2)c(Cl)cc1F [Example 1081] | 8.09 | 7.75 | – | – |
| COc1cc(-c2cc3[nH]c(=O)n(-c4cncc5ncc(C)n45)c(=O)c3s2)c(Cl)cc1F [Example 1082] | 7.74 | 7.04 | – | – |
| COc1cnc(Cl)c(-c2cc3c(s2)c(=O)n(-c2cncc4cccc(F)c24)c(=O)n3CCC#N)c1 [Example 1083, 3-(6-(2-chloro-5-methoxypyridin-3-yl)-3-(5-fluoroisoquinolin-4-yl)-2,4-dioxo-3,4-dihydrothieno[3,2-d]pyrimidin-1(2H)-yl)propanenitrile] | 7.95 | – | 7.44 | – |
| N#CCCn1c(=O)n(-c2cncc3cccc(F)c23)c(=O)c2sc(-c3ccccc3Cl)cc21 [Example 1084] | 8.12 | 7.93 | – | – |
| N#CCCn1c(=O)n(-c2cncc3cccc(F)c23)c(=O)c2sc(-c3ccccc3C#N)cc21 [Example 1085] | 7.64 | 7.38 | – | – |
| COc1cnc(Cl)c(-c2cc3c(s2)c(=O)n(-c2cncc4nn(C)c(C)c24)c(=O)n3CCC#N)c1 [Example 1086] | 7.61 | 6.38 | – | – |
| COc1cnc(C#N)c(-c2cc3c(s2)c(=O)n(-c2cncc4nn(C)c(C)c24)c(=O)n3CCC#N)c1 [Example 1087] | 7.22 | < 6.00 | – | – |
| COc1cc(-c2cc3c(s2)c(=O)n(-c2cncc4ccccc24)c(=O)n3CC(C)C#N)c(Cl)cc1F (stereo not drawn) [Example 1096, 3-(6-(2-chloro-4-fluoro-5-methoxyphenyl)-3-(isoquinolin-4-yl)-2,4-dioxo-3,4-dihydrothieno[3,2-d]pyrimidin-1(2H)-yl)-2-methylpropanenitrile] | 7.98 | – | 7.80 | – |
| COc1cc(-c2cc3c(s2)c(=O)n(-c2cncc4ccccc24)c(=O)n3Cc2cc(F)c(F)c(F)c2)c(Cl)cc1F [Example 1099, 6-(2-chloro-4-fluoro-5-methoxy-phenyl)-3-(4-isoquinolyl)-1-[(3,4,5-trifluorophenyl)methyl]thieno[3,2-d]pyrimidine-2,4-dione] | 6.41 | – | 6.04 | – |
| COc1cc(-c2cc3c(s2)c(=O)n(-c2cncc(CO)c2)c(=O)n3CCC#N)c(Cl)cc1F [Example 1100, 3-(6-(2-chloro-4-fluoro-5-methoxyphenyl)-3-(5-(hydroxymethyl)pyridin-3-yl)-2,4-dioxo-3,4-dihydrothieno[3,2-d]pyrimidin-1(2H)-yl)propanenitrile] | 8.59 | – | 7.82 | – |
| N#CCCn1c(=O)n(-c2cncc(CO)c2)c(=O)c2sc(-c3ccccc3C#N)cc21 [Example 1101] | 7.44 | < 6.00 | – | – |
| COc1cc(-c2cc3c(s2)c(=O)n(-c2cncc(CO)c2)c(=O)n3CCC#N)c(C#N)cc1F [Example 1102] | 8.39 | 6.25 | – | – |
